Source: the NIST ThermoML archive (doi:10.1016/j.tca.2013.05.007)
Numbers after ± are expanded uncertainties.

Test: molar heat capacity at constant pressure
Conditions: 305.15 K; 101.33 kPa; Liquid; Large sample (1 g) DSC

Structure (SMILES)	molar heat capacity at constant pressure [J/K/mol]
CC[n+]1cccc(C)c1.O=S(=O)([N-]S(=O)(=O)C(F)(F)F)C(F)(F)F	499 ± 50
CCCCn1cc[n+](C)c1.N#CN=C=[N-] [1-butyl-3-methylimidazolium dicyanamide]	380 ± 38
CCC[n+]1cccc(C)c1.O=S(=O)([N-]S(=O)(=O)C(F)(F)F)C(F)(F)F	524 ± 53

Same assay, conditions: 306.15 K; 101.33 kPa; Liquid; Large sample (1 g) DSC

Structure (SMILES)	molar heat capacity at constant pressure [J/K/mol]
CCCC[n+]1cccc(C)c1.O=S(=O)([N-]S(=O)(=O)C(F)(F)F)C(F)(F)F	557 ± 56
CC[n+]1cccc(C)c1.O=S(=O)([N-]S(=O)(=O)C(F)(F)F)C(F)(F)F	500 ± 51
CCCCn1cc[n+](C)c1.N#CN=C=[N-] [1-butyl-3-methylimidazolium dicyanamide]	380 ± 38
CCC[n+]1cccc(C)c1.O=S(=O)([N-]S(=O)(=O)C(F)(F)F)C(F)(F)F	525 ± 53

Same assay, conditions: 307.15 K; 101.33 kPa; Liquid; Large sample (1 g) DSC

Structure (SMILES)	molar heat capacity at constant pressure [J/K/mol]
CCCC[n+]1cccc(C)c1.O=S(=O)([N-]S(=O)(=O)C(F)(F)F)C(F)(F)F	558 ± 56
CC[n+]1cccc(C)c1.O=S(=O)([N-]S(=O)(=O)C(F)(F)F)C(F)(F)F	501 ± 51
CCCCn1cc[n+](C)c1.N#CN=C=[N-] [1-butyl-3-methylimidazolium dicyanamide]	381 ± 38
CCC[n+]1cccc(C)c1.O=S(=O)([N-]S(=O)(=O)C(F)(F)F)C(F)(F)F	526 ± 53

Same assay, conditions: 308.15 K; 101.33 kPa; Liquid; Large sample (1 g) DSC

Structure (SMILES)	molar heat capacity at constant pressure [J/K/mol]
CCCC[n+]1cccc(C)c1.O=S(=O)([N-]S(=O)(=O)C(F)(F)F)C(F)(F)F	559 ± 56
CC[n+]1cccc(C)c1.O=S(=O)([N-]S(=O)(=O)C(F)(F)F)C(F)(F)F	502 ± 51
CCCCn1cc[n+](C)c1.N#CN=C=[N-] [1-butyl-3-methylimidazolium dicyanamide]	381 ± 38
CCC[n+]1cccc(C)c1.O=S(=O)([N-]S(=O)(=O)C(F)(F)F)C(F)(F)F	527 ± 53

Same assay, conditions: 309.15 K; 101.33 kPa; Liquid; Large sample (1 g) DSC

Structure (SMILES)	molar heat capacity at constant pressure [J/K/mol]
CCCC[n+]1cccc(C)c1.O=S(=O)([N-]S(=O)(=O)C(F)(F)F)C(F)(F)F	560 ± 57
CC[n+]1cccc(C)c1.O=S(=O)([N-]S(=O)(=O)C(F)(F)F)C(F)(F)F	502 ± 51
CCCCn1cc[n+](C)c1.N#CN=C=[N-] [1-butyl-3-methylimidazolium dicyanamide]	382 ± 39
CCC[n+]1cccc(C)c1.O=S(=O)([N-]S(=O)(=O)C(F)(F)F)C(F)(F)F	528 ± 53

Same assay, conditions: 310.15 K; 101.33 kPa; Liquid; Large sample (1 g) DSC

Structure (SMILES)	molar heat capacity at constant pressure [J/K/mol]
CCCC[n+]1cccc(C)c1.O=S(=O)([N-]S(=O)(=O)C(F)(F)F)C(F)(F)F	561 ± 57
CC[n+]1cccc(C)c1.O=S(=O)([N-]S(=O)(=O)C(F)(F)F)C(F)(F)F	503 ± 51
CCCCn1cc[n+](C)c1.N#CN=C=[N-] [1-butyl-3-methylimidazolium dicyanamide]	382 ± 39
CCC[n+]1cccc(C)c1.O=S(=O)([N-]S(=O)(=O)C(F)(F)F)C(F)(F)F	529 ± 53

Same assay, conditions: 311.15 K; 101.33 kPa; Liquid; Large sample (1 g) DSC

Structure (SMILES)	molar heat capacity at constant pressure [J/K/mol]
CCCC[n+]1cccc(C)c1.O=S(=O)([N-]S(=O)(=O)C(F)(F)F)C(F)(F)F	562 ± 57
CC[n+]1cccc(C)c1.O=S(=O)([N-]S(=O)(=O)C(F)(F)F)C(F)(F)F	504 ± 51
CCCCn1cc[n+](C)c1.N#CN=C=[N-] [1-butyl-3-methylimidazolium dicyanamide]	382 ± 39
CCC[n+]1cccc(C)c1.O=S(=O)([N-]S(=O)(=O)C(F)(F)F)C(F)(F)F	530 ± 54

Same assay, conditions: 312.15 K; 101.33 kPa; Liquid; Large sample (1 g) DSC

Structure (SMILES)	molar heat capacity at constant pressure [J/K/mol]
CCCC[n+]1cccc(C)c1.O=S(=O)([N-]S(=O)(=O)C(F)(F)F)C(F)(F)F	563 ± 57
CC[n+]1cccc(C)c1.O=S(=O)([N-]S(=O)(=O)C(F)(F)F)C(F)(F)F	505 ± 51
CCCCn1cc[n+](C)c1.N#CN=C=[N-] [1-butyl-3-methylimidazolium dicyanamide]	383 ± 39
CCC[n+]1cccc(C)c1.O=S(=O)([N-]S(=O)(=O)C(F)(F)F)C(F)(F)F	531 ± 54

Same assay, conditions: 313.15 K; 101.33 kPa; Liquid; Large sample (1 g) DSC

Structure (SMILES)	molar heat capacity at constant pressure [J/K/mol]
CCCC[n+]1cccc(C)c1.O=S(=O)([N-]S(=O)(=O)C(F)(F)F)C(F)(F)F	564 ± 57
CC[n+]1cccc(C)c1.O=S(=O)([N-]S(=O)(=O)C(F)(F)F)C(F)(F)F	506 ± 51
CCCCn1cc[n+](C)c1.N#CN=C=[N-] [1-butyl-3-methylimidazolium dicyanamide]	383 ± 39
CCC[n+]1cccc(C)c1.O=S(=O)([N-]S(=O)(=O)C(F)(F)F)C(F)(F)F	532 ± 54

Same assay, conditions: 314.15 K; 101.33 kPa; Liquid; Large sample (1 g) DSC

Structure (SMILES)	molar heat capacity at constant pressure [J/K/mol]
CCCC[n+]1cccc(C)c1.O=S(=O)([N-]S(=O)(=O)C(F)(F)F)C(F)(F)F	564 ± 57
CC[n+]1cccc(C)c1.O=S(=O)([N-]S(=O)(=O)C(F)(F)F)C(F)(F)F	507 ± 51
CCCCn1cc[n+](C)c1.N#CN=C=[N-] [1-butyl-3-methylimidazolium dicyanamide]	384 ± 39
CCC[n+]1cccc(C)c1.O=S(=O)([N-]S(=O)(=O)C(F)(F)F)C(F)(F)F	532 ± 54

Same assay, conditions: 315.15 K; 101.33 kPa; Liquid; Large sample (1 g) DSC

Structure (SMILES)	molar heat capacity at constant pressure [J/K/mol]
CCCC[n+]1cccc(C)c1.O=S(=O)([N-]S(=O)(=O)C(F)(F)F)C(F)(F)F	565 ± 57
CC[n+]1cccc(C)c1.O=S(=O)([N-]S(=O)(=O)C(F)(F)F)C(F)(F)F	507 ± 51
CCCCn1cc[n+](C)c1.N#CN=C=[N-] [1-butyl-3-methylimidazolium dicyanamide]	384 ± 39
CCC[n+]1cccc(C)c1.O=S(=O)([N-]S(=O)(=O)C(F)(F)F)C(F)(F)F	533 ± 54

Same assay, conditions: 316.15 K; 101.33 kPa; Liquid; Large sample (1 g) DSC

Structure (SMILES)	molar heat capacity at constant pressure [J/K/mol]
CCCC[n+]1cccc(C)c1.O=S(=O)([N-]S(=O)(=O)C(F)(F)F)C(F)(F)F	566 ± 57
CC[n+]1cccc(C)c1.O=S(=O)([N-]S(=O)(=O)C(F)(F)F)C(F)(F)F	508 ± 51
CCCCn1cc[n+](C)c1.N#CN=C=[N-] [1-butyl-3-methylimidazolium dicyanamide]	384 ± 39
CCC[n+]1cccc(C)c1.O=S(=O)([N-]S(=O)(=O)C(F)(F)F)C(F)(F)F	534 ± 54

Same assay, conditions: 317.15 K; 101.33 kPa; Liquid; Large sample (1 g) DSC

Structure (SMILES)	molar heat capacity at constant pressure [J/K/mol]
CCCC[n+]1cccc(C)c1.O=S(=O)([N-]S(=O)(=O)C(F)(F)F)C(F)(F)F	567 ± 57
CC[n+]1cccc(C)c1.O=S(=O)([N-]S(=O)(=O)C(F)(F)F)C(F)(F)F	509 ± 51
CCCCn1cc[n+](C)c1.N#CN=C=[N-] [1-butyl-3-methylimidazolium dicyanamide]	385 ± 39
CCC[n+]1cccc(C)c1.O=S(=O)([N-]S(=O)(=O)C(F)(F)F)C(F)(F)F	535 ± 54

Same assay, conditions: 318.15 K; 101.33 kPa; Liquid; Large sample (1 g) DSC

Structure (SMILES)	molar heat capacity at constant pressure [J/K/mol]
CCCC[n+]1cccc(C)c1.O=S(=O)([N-]S(=O)(=O)C(F)(F)F)C(F)(F)F	568 ± 57
CC[n+]1cccc(C)c1.O=S(=O)([N-]S(=O)(=O)C(F)(F)F)C(F)(F)F	510 ± 52
CCCCn1cc[n+](C)c1.N#CN=C=[N-] [1-butyl-3-methylimidazolium dicyanamide]	385 ± 39
CCC[n+]1cccc(C)c1.O=S(=O)([N-]S(=O)(=O)C(F)(F)F)C(F)(F)F	536 ± 54

Same assay, conditions: 319.15 K; 101.33 kPa; Liquid; Large sample (1 g) DSC

Structure (SMILES)	molar heat capacity at constant pressure [J/K/mol]
CCCC[n+]1cccc(C)c1.O=S(=O)([N-]S(=O)(=O)C(F)(F)F)C(F)(F)F	569 ± 57
CC[n+]1cccc(C)c1.O=S(=O)([N-]S(=O)(=O)C(F)(F)F)C(F)(F)F	510 ± 52
CCCCn1cc[n+](C)c1.N#CN=C=[N-] [1-butyl-3-methylimidazolium dicyanamide]	385 ± 39
CCC[n+]1cccc(C)c1.O=S(=O)([N-]S(=O)(=O)C(F)(F)F)C(F)(F)F	536 ± 54
